Where a name gives a salt, the structure may show the parent alone.

The source of these data is publication PMC8119466, “A screen of FDA-approved drugs identifies inhibitors of protein tyrosine phosphatase 4A3 (PTP4A3 or PRL-3)” (Scientific Reports, 2021).

Common to all, as to type: biochemical
What all share (settings): FDA-approved drug screen

One assay deals with T1, recombinant PRL-3 (Homo sapiens, UniProt O75365).
T1 construct: 6xHis (N, cleaved yes); made in house; host or cells: E. coli One Shot BL21 Star
T1 sequence (O75365 whole entry): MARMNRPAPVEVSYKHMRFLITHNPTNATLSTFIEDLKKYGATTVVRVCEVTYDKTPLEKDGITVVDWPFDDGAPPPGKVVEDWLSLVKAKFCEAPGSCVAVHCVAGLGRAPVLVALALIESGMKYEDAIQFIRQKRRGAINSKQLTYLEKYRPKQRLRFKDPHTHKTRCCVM
Description: In vitro phosphatase assay (DiFMUP hydrolysis), PRL-3. Also: test concentration or dose not given here.

The target in another assay is T2, recombinant PRL-1 (Homo sapiens, UniProt Q93096).
T2 construct: 6xHis (N, cleaved yes); made in house; host or cells: E. coli One Shot BL21 Star
T2 sequence (Q93096 1-173): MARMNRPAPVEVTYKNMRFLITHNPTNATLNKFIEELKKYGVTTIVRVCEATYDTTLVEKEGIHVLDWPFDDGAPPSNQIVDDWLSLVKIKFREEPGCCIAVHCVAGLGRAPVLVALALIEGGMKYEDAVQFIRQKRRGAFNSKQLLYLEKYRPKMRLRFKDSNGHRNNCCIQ
Description: In vitro phosphatase assay (DiFMUP hydrolysis), PRL-1. Also: test concentration or dose not given here.

The target of a further assay is T3, recombinant PRL-2 (Homo sapiens, UniProt Q12974).
T3 construct: 6xHis (N, cleaved yes); made in house; host or cells: E. coli One Shot BL21 Star
T3 sequence (Q12974 1-167): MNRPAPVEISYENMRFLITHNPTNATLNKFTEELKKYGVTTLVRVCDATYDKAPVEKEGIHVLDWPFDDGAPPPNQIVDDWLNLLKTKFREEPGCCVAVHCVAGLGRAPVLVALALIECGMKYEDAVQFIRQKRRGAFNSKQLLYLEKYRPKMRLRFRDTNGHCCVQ
Description: In vitro phosphatase assay (DiFMUP hydrolysis), PRL-2.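 Also: PRL-2 activity read as DiFMUP hydrolysis after 20 min at room temperature with drug, enzyme first pre-reduced at 4 °C for 20 min.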

Consider `C[C@]12C=CC(=O)C=C1CC[C@H]1[C@@H]3C[C@@H](O)[C@](O)(C(=O)CO)[C@@]3(C)C[C@H](O)[C@@]12F` [Triamcinolone], for which, at recombinant PRL-3 (activity compared to DMSO), the “% Phosphatase Activity (compared to DMSO) PRL-3” value is on record as 81%. Besides, the “% Phosphatase Activity (compared to DMSO) PRL-1” value on recombinant PRL-1 (activity compared to DMSO) is 91%. For the same compound, the “% Phosphatase Activity (compared to DMSO) PRL-2” value on recombinant PRL-2 (activity compared to DMSO) is recorded as 97%.
`CN(C)CCOC(c1ccc(Cl)cc1)c1ccccn1.O=C(O)/C=C\C(=O)O` (stereo not drawn) [ArbinoxaMine Maleate]: the “% Phosphatase Activity (compared to DMSO) PRL-3” value at recombinant PRL-3 (compared to DMSO) was 91%. For the same compound, the “% Phosphatase Activity (compared to DMSO) PRL-1” value at recombinant PRL-1 (compared to DMSO) is reported as 100%. In addition, the “% Phosphatase Activity (compared to DMSO) PRL-2” value at recombinant PRL-2 (compared to DMSO) was found to be 77%.
The matching figures for `COC(=O)[C@@H]1CC2=CC(=O)CC[C@]2(C)[C@@]23O[C@@H]2C[C@@]2(C)[C@@H](CC[C@@]24CCC(=O)O4)[C@H]13` [Eplerenone]: 81%, 105% and 112%.
The matching figures for `CCC(=O)O[C@]1(C(=O)CCl)[C@@H](C)C[C@H]2[C@@H]3C[C@H](F)C4=CC(=O)C=C[C@]4(C)[C@@]3(F)[C@@H](O)C[C@@]21C` [Halobetasol Propionate]: 77%, 88% and 88%.
For `CC(C(=O)O)c1ccc2c(c1)Cc1cccnc1O2` (stereo not drawn) [Pranoprofen] the same measures were 92%, 97% and 87%.
On to `O=C(/C=C\n1cnc(-c2cc(C(F)(F)F)cc(C(F)(F)F)c2)n1)NNc1cnccn1` [KPT-330], for which the “% Phosphatase Activity (compared to DMSO) PRL-3” value on recombinant PRL-3 (compared to DMSO) worked out at 97%. Further, on recombinant PRL-1 (compared to DMSO), the “% Phosphatase Activity (compared to DMSO) PRL-1” value was found to be 87%. On recombinant PRL-2 (compared to DMSO), the “% Phosphatase Activity (compared to DMSO) PRL-2” value was 69%.
For `CCCCCCCN(CC)CCCC(O)c1ccc(NS(C)(=O)=O)cc1.CCCCCCCN(CC)CCCC(O)c1ccc(NS(C)(=O)=O)cc1.O=C(O)/C=C/C(=O)O` (stereo not drawn) [Ibutilide Fumarate] the same measures were 88%, 100% and 128%.
As for `CS(=O)(=O)OCCCCOS(C)(=O)=O` [Busulfan], on recombinant PRL-3 (compared to DMSO), the “% Phosphatase Activity (compared to DMSO) PRL-3” value is 79%. In addition, at recombinant PRL-1 (compared to DMSO), the “% Phosphatase Activity (compared to DMSO) PRL-1” value turned out to be 103%. Besides, the “% Phosphatase Activity (compared to DMSO) PRL-2” value on recombinant PRL-2 (compared to DMSO) turned out to be 95%.
For `COC(=O)C1=C(C#N)NC(C)=C(C(=O)OC(C)C)C1c1cccc([N+](=O)[O-])c1` (stereo not drawn) [Nilvadipine] the same measures were 87%, 88% and 82%.
For `[O-][n+]1cccc(CO)c1` [Mepiroxol] the same measures were 87%, 100% and 112%.
The matching figures for `N[C@@H](Cc1cc(I)c(Oc2cc(I)c(O)c(I)c2)c(I)c1)C(=O)O` [L-Thyroxine]: 81%, 79% and 92%.
`CC(=O)OCC(COC(C)=O)OC(C)=O` [Triacetin]: the “% Phosphatase Activity (compared to DMSO) PRL-3” value on recombinant PRL-3 (activity compared to DMSO) came out at 85%. In addition, the “% Phosphatase Activity (compared to DMSO) PRL-1” value on recombinant PRL-1 (activity compared to DMSO) came out at 93%. In addition, the “% Phosphatase Activity (compared to DMSO) PRL-2” value at recombinant PRL-2 (activity compared to DMSO) is 96%.
Take `CCCN(CCC)C(=O)C1=Cc2ccc(-c3ccc(C(=O)N4CCCC4)cc3)cc2N=C(N)C1` [Motolimod (VTX-2337)]: the “% Phosphatase Activity (compared to DMSO) PRL-3” value at recombinant PRL-3 (compared to DMSO) came out at 106%. At recombinant PRL-1 (compared to DMSO), the “% Phosphatase Activity (compared to DMSO) PRL-1” value came to 103%. On recombinant PRL-2 (compared to DMSO), the “% Phosphatase Activity (compared to DMSO) PRL-2” value came to 90%.
Turning to `Nc1nc(NC2CC2)c2ncn([C@H]3C=C[C@@H](CO)C3)c2n1` [Abacavir sulfate], at recombinant PRL-3 (compared to DMSO), the “% Phosphatase Activity (compared to DMSO) PRL-3” value stood at 111%. The “% Phosphatase Activity (compared to DMSO) PRL-1” value at recombinant PRL-1 (compared to DMSO) is on record as 88%. Also, the “% Phosphatase Activity (compared to DMSO) PRL-2” value on recombinant PRL-2 (compared to DMSO) is recorded as 85%.
On to `CC(=O)NO` [Acetohydroxamic acid], for which the “% Phosphatase Activity (compared to DMSO) PRL-3” value at recombinant PRL-3 (compared to DMSO) is recorded as 75%. Moreover, on recombinant PRL-1 (compared to DMSO), the “% Phosphatase Activity (compared to DMSO) PRL-1” value worked out at 91%. The “% Phosphatase Activity (compared to DMSO) PRL-2” value on recombinant PRL-2 (compared to DMSO) was 111%.
`CN(C)CCCOc1nn(Cc2ccccc2)c2ccccc12` [Benzydamine HCl]: the “% Phosphatase Activity (compared to DMSO) PRL-3” value on recombinant PRL-3 (compared to DMSO) is 77%. The “% Phosphatase Activity (compared to DMSO) PRL-1” value on recombinant PRL-1 (compared to DMSO) stood at 100%. Also, on recombinant PRL-2 (compared to DMSO), the “% Phosphatase Activity (compared to DMSO) PRL-2” value is listed as 116%.
